One assay addresses T1, E275D Slo2.1 channels (Homo sapiens, UniProt Q6UVM3, E275D).
T1 sequence (Q6UVM3 1-1135 E275D): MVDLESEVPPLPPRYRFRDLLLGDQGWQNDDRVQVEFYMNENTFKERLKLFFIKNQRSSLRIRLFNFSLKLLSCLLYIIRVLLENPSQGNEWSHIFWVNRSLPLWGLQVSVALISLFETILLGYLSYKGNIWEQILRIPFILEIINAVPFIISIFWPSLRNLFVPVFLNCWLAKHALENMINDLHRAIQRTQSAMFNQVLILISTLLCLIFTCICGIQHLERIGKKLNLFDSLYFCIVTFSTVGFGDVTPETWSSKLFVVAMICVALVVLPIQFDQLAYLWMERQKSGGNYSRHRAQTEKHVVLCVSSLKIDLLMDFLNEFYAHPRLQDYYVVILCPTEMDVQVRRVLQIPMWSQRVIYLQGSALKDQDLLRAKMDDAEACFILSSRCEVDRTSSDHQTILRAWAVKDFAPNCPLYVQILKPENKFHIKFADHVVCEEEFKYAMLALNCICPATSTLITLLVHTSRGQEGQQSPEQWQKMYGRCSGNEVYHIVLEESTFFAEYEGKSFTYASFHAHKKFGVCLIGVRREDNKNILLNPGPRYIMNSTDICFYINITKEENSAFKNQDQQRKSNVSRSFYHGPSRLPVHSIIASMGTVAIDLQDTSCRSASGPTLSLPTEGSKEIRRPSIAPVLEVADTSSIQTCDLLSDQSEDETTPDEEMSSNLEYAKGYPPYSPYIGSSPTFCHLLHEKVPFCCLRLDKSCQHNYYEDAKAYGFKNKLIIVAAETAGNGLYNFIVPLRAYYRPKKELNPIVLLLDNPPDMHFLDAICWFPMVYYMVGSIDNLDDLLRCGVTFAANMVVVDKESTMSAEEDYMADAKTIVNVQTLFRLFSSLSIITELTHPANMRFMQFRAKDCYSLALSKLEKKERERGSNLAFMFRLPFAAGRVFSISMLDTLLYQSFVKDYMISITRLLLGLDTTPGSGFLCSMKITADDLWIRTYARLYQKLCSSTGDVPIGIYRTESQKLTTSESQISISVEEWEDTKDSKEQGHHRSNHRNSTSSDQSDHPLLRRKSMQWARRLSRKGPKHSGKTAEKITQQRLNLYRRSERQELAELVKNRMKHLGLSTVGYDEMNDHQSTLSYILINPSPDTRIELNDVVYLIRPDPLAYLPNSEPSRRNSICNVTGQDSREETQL
Nature of the assay: Activation of ISlo2.1 by NFA, two-electrode voltage clamp in oocytes. Format: cell-based. A general note: Two-electrode voltage clamp holds a large cell at a set potential and records current.

Another assay concerns the target T2, F240C Slo2.1 channels (Homo sapiens, UniProt Q6UVM3, F240C).
T2 sequence (Q6UVM3 1-1135 F240C): T1 sequence (Q6UVM3 1-1135 E275D) with F240C, D275E
The assay is described as above. In kind it is cell-based.

Usually EC50 stands for the concentration that produces a half-maximal response.

Structures are written as SMILES. Where a chain is given by its changes, count along the chain named.

Molecule `O=C(O)c1cccnc1Nc1cccc(C(F)(F)F)c1` [NFA, niflumic acid] had a concentration giving a half-maximal response (EC50) on E275D Slo2.1 channels of 192 µM. Further, on E275D Slo2.1 channels (E275D), the “Hill coefficient nH of NFA activation” value was 1.08 ± 0.09. Further, the “EC50 for E275D lower than EC50 for WT channels” value at E275D Slo2.1 channels (E275D vs WT) worked out at 11 fold. The “maximal increase in current at 0 mV” value on E275D Slo2.1 channels (E275D, 3 mM NFA (maximally effective concentration)) is given as approximately 2.5 fold. In addition, the “activation of F240C currents by NFA” value at F240C Slo2.1 channels (KCM211 solution ([K^+]e 2 mM)) is “not further activated by NFA”; on F240C Slo2.1 channels ([K^+]e elevated to 104 mM, 1 mM NFA), “further activated by 1 mM NFA”.
